We go through 29 compounds from patent US12435060B2, “Acylamino bridged heterocyclic compound, and composition and application thereof” (BEIJING SCITECH-MQ PHARMACEUTICALS LIMITED, priority 2019, dated 2025).

The assay concerns HT29 cells. Put plainly: Inhibition of cell necrosis (CCK8 method), induced programmed necrosis of HT29 cells. Format: cell-based. Particulars: Homo sapiens, HT-29; rescue from necrosis induced by TNF-α 20 ng/mL, AT-406 1 μM, Z-VAD-FMK 20 μM; 16-20 hours; CCK-8, OD 450 nm. In a few lines: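 HT29 cells in McCOY's 5A with 10% FBS were pre-treated for 30 min with compound (9 fourfold steps, 25000 to 0.38 nM final, 0.25% DMSO). Necrosis was then induced with TNF-α 20 ng/mL, AT-406 1 μM and Z-VAD-FMK 20 μM for 16-20 h. Viability was read by CCK-8 OD450, normalized between uninduced and induced wells, and IC50 was curve-fitted.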
The compound `CC(C)(O)CCCCOc1ccc(Cl)c(-c2cc(NC(=O)c3nnc(Cc4ccccc4F)[nH]3)ncc2Cl)c1` [Example 420, N-(5-chloro-4-(2-chloro-5-((5-hydroxyl-5-methylhexyl)oxy)phenyl)pyridin-2-yl)-5-(2-fluorobenzyl)-4H-1,2,4-triazole-3-carboxamide] yielded an IC50 of 100 to 1000 nM.
Then `Cc1ccc(OCCCC(N)=O)cc1-c1ccnc(NC(=O)c2nnc(Cc3ccccc3)[nH]2)c1` [Example 157, N-(4-(5-(4-amino-4-oxobutoxy)-2-methylphenyl)pyridin-2-yl)-5-benzyl-4H-1,2,4-triazole-3-carboxamide], with 100 to 1000 nM; and `CCOCCOc1ccc(C)c(-c2ccnc(NC(=O)c3nnc(Cc4ccccc4)[nH]3)c2)c1` [Example 131, 5-benzyl-N-(4-(5-(2-ethoxyethoxy)-2-methylphenyl)pyridin-2-yl)-4H-1,2,4-triazole-3-carboxamide], with not above 100 nM.
For `CC(C)Oc1ccccc1-c1ccnc(NC(=O)c2nnc(Cc3ccccc3)[nH]2)c1` [Example 5, 5-benzyl-N-(4-(2-isopropyloxyphenyl)pyridin-2-yl)-4H-1,2,4-triazole-3-carboxamide], the IC50 was more than 10000 nM.
Then `Cc1ccc(CCC(C)(C)O)cc1-c1ccnc(NC(=O)c2nnc(Cc3ccccc3)[nH]2)c1` [Example 482, 5-benzyl-N-(4-(5-(3-hydroxyl-3-methylbutyl)-2-methylphenyl)pyridin-2-yl)-4H-1,2,4-triazole-3-carboxamide], with not above 100 nM.
With `Cc1ccc(OCC(N)=O)cc1-c1ccnc(NC(=O)c2nnc(Cc3ccccc3)[nH]2)c1` [Example 116, N-(4-(5-(2-amino-2-oxoethoxy)-2-methylphenyl)pyridin-2-yl)-5-benzyl-4H-1,2,4-triazole-3-carboxamide], the IC50 was in the range of 100 to 1000 nM.
The result for `Cc1ccc(OCCCC(C)(C)O)cc1-c1cc(NC(=O)c2nnc(Cc3ccccc3)[nH]2)ncn1` [Example 432, 5-benzyl-N-(6-(5-((4-hydroxy-4-methylpentyl)oxy)-2-methylphenyl)pyrimidin-4-yl)-4H-1,2,4-triazole-3-carboxamide] reads not above 100 nM; that for `Cc1ccc(OCCCC(C)(C)O)cc1-c1ccnc(NC(=O)c2nnc(Cc3cc(F)c(F)cc3F)[nH]2)c1` [Example 218, 5-(2,4,5-trifluorobenzyl)-N-(4-(5-((4-hydroxy-4-methylpentyl)oxy)-2-methylphenyl)pyridin-2-yl)-4H-1,2,4-triazole-3-carboxamide], not above 100 nM; that for `Cc1cc(Cc2nnc(C(=O)Nc3cc(-c4cc(OCCCC(C)(C)O)ccc4Cl)ccn3)[nH]2)ccc1F` [Example 345, N-(4-(2-chloro-5-((4-hydroxy-4-methylpentyl)oxy)phenyl)pyridin-2-yl)-5-(4-fluoro-3-methylbenzyl)-4H-1,2,4-triazole-3-carboxamide], 100 to 1000 nM.
As for `O=C(Nc1cc(-c2cc(OCCC3CCOCC3)ccc2Cl)ccn1)c1nnc(CC2CCCC2)[nH]1` [Example 405, N-(4-(2-chloro-5-(2-(tetrahydro-2H-pyran-4-yl)ethoxy)phenyl)pyridin-2-yl)-5-(cyclopentylmethyl)-4H-1,2,4-triazole-3-carboxamide], the IC50 is not above 100 nM.
Consider `O=C(Nc1cc(-c2cc(OCCC3CCOCC3)ccc2Cl)c(F)cn1)c1nnc(CC2CCCCC2)[nH]1` [Example 429, N-(4-(2-chloro-5-(2-(tetrahydro-2H-pyran-4-yl)ethoxy)phenyl)-5-fluoropyridin-2-yl)-5-(cyclohexylmethyl)-4H-1,2,4-triazole-3-carboxamide], for which the IC50 was not above 100 nM.
As to `Cc1ccc(OCCCN(C)C)cc1-c1ccnc(NC(=O)c2nnc(Cc3ccccc3)[nH]2)c1` [Example 139, 5-benzyl-N-(4-(5-(3-(dimethylamino)propoxy)-2-methylphenyl)pyridin-2-yl)-4H-1,2,4-triazole-3-carboxamide], the IC50 was more than 10000 nM.
The result for `O=C(Nc1cc(-c2cc(OCC3CCOCC3)ccc2Cl)ncn1)c1nnc(Cc2ccccc2F)[nH]1` [Example 467, 5-(2-fluorobenzyl)-N-(6-(2-chloro-5-((tetrahydro-2H-pyran-4-yl)methoxy)phenyl)pyrimidin-4-yl)-4H-1,2,4-triazole-3-carboxamide] reads not above 100 nM.
`CC(C)(O)CCCOc1cc(F)c(Cl)c(-c2ccnc(NC(=O)c3nnc(Cc4ccccc4F)[nH]3)c2)c1` [Example 408, N-(4-(2-chloro-3-fluoro-5-((4-hydroxy-4-methylpentyl)oxy)phenyl)pyridin-2-yl)-5-(2-fluorobenzyl)-4H-1,2,4-triazole-3-carboxamide] registered an IC50 of more than 10000 nM.
With `Cc1ccc(OCCCC(C)(C)O)cc1-c1cc(NC(=O)c2nnc(Cc3cccc(Cl)c3F)[nH]2)ncn1` [Example 438, 5-(3-chloro-2-fluorobenzyl)-N-(6-(5-((4-hydroxy-4-methylpentyl)oxy)-2-methylphenyl)pyrimidin-4-yl)-4H-1,2,4-triazole-3-carboxamide], the IC50 was in the range of 100 to 1000 nM.
Consider `CC(C)(C)OCCOc1ccc(C(F)(F)F)c(-c2ccnc(NC(=O)c3nnc(CC4CCCC4)[nH]3)c2)c1` [Example 293, 5-(cyclopentylmethyl)-N-(4-(5-(2-(tert-butoxy)ethoxy)-2-(trifluoromethyl)phenyl)pyridin-2-yl)-4H-1,2,4-triazole-3-carboxamide], for which the IC50 is not above 100 nM.
In the case of `CC(C)(O)CCCOc1cc(F)c(Cl)c(-c2ccnc(NC(=O)c3nnc(Cc4ccccc4)[nH]3)c2)c1` [Example 407, 5-benzyl-N-(4-(2-chloro-3-fluoro-5-((4-hydroxy-4-methylpentyl)oxy)phenyl)pyridin-2-yl)-4H-1,2,4-triazole-3-carboxamide], the IC50 is more than 10000 nM.
In turn, `CC(C)(O)CCCOc1ccc(Cl)c(-c2cc(NC(=O)c3nnc(Cc4ccccc4F)[nH]3)ncc2Cl)c1` [Example 411, N-(5-chloro-4-(2-chloro-5-((4-hydroxy-4-methylpentyl)oxy)phenyl)pyridin-2-yl)-5-(2-fluorobenzyl)-4H-1,2,4-triazole-3-carboxamide] registered an IC50 of 100 to 1000 nM.
Turning to `COCCOc1ccc(C(F)(F)F)c(-c2ccnc(NC(=O)c3nnc(CC4CCCCC4)[nH]3)c2)c1` [Example 282, 5-(cyclohexylmethyl)-N-(4-(5-(2-methoxyethoxy)-2-(trifluoromethyl)phenyl)pyridin-2-yl)-4H-1,2,4-triazole-3-carboxamide], the IC50 is not above 100 nM.
On to `O=C(Nc1cc(-c2cc(OCC3CCOCC3)ccc2C(F)(F)F)ncn1)c1nnc(CC2CCCC2)[nH]1` [Example 456, 5-(cyclopentylmethyl)-N-(6-(5-((tetrahydro-2H-pyran-4-yl)methoxy)-2-(trifluoromethyl)phenyl)pyrimidin-4-yl)-4H-1,2,4-triazole-3-carboxamide], for which the IC50 was not above 100 nM.
With `CC(C)(O)CCCOc1ccc(F)c(-c2cc(NC(=O)c3nnc(Cc4ccccc4F)[nH]3)ncc2F)c1` [Example 318, N-(5-fluoro-4-(2-fluoro-5-((4-hydroxy-4-methylpentyl)oxy)phenyl)pyridin-2-yl)-5-(2-fluorobenzyl)-4H-1,2,4-triazole-3-carboxamide], the IC50 was not above 100 nM.
`C=CCOc1ccc(C)c(-c2ccnc(NC(=O)c3nnc(Cc4ccccc4)[nH]3)c2)c1` [Example 82, N-(4-(5-(allyloxy)-2-methylphenyl)pyridin-2-yl)-5-benzyl-4H-1,2,4-triazole-3-carboxamide] showed an IC50 of 100 to 1000 nM.
The result for `Cc1ccc(OCCCC(C)(C)O)cc1-c1cc(NC(=O)c2nnc(Cc3ccccc3F)[nH]2)ncn1` [Example 433, 5-(2-fluorobenzyl)-N-(6-(5-((4-hydroxy-4-methylpentyl)oxy)-2-methylphenyl)pyrimidin-4-yl)-4H-1,2,4-triazole-3-carboxamide] reads not above 100 nM; that for `CC(C)(O)CCCOc1ccc(C(F)(F)F)c(-c2ccnc(NC(=O)c3nnc(CC4CCCCC4)[nH]3)c2)c1` [Example 259, 5-(cyclohexylmethyl)-N-(4-(5-((4-hydroxy-4-methylpentyl)oxy)-2-(trifluoromethyl)phenyl)pyridin-2-yl)-4H-1,2,4-triazole-3-carboxamide], not above 100 nM.
In turn, `CC(C)(O)CCCOc1ccc(C(F)(F)F)c(-c2cc(NC(=O)c3nnc(CC4CCCCC4)[nH]3)ncn2)c1` [Example 453, 5-(cyclohexylmethyl)-N-(6-(5-((4-hydroxy-4-methylpentyl)oxy)-2-(trifluoromethyl)phenyl)pyrimidin-4-yl)-4H-1,2,4-triazole-3-carboxamide] displayed an IC50 not above 100 nM.
`CC(C)OCCOc1ccc(Cl)c(-c2ccnc(NC(=O)c3nnc(CC4CCCC4)[nH]3)c2)c1` [Example 389, N-(4-(2-chloro-5-(2-isopropoxyethoxy)phenyl)pyridin-2-yl)-5-(cyclopentylmethyl)-4H-1,2,4-triazole-3-carboxamide]: the IC50 is not above 100 nM.
The result for `CC(C)(O)CCCOc1ccc(Cl)c(-c2ccnc(NC(=O)c3nnc(Cc4cc(F)cc(F)c4F)[nH]3)c2)c1` [Example 352, N-(4-(2-chloro-5-((4-hydroxy-4-methylpentyl)oxy)phenyl)pyridin-2-yl)-5-(2,3,5-trifluorobenzyl)-4H-1,2,4-triazole-3-carboxamide] reads 100 to 1000 nM; that for `C=CCCCOc1ccc(C)c(-c2ccnc(NC(=O)c3nnc(Cc4ccccc4)[nH]3)c2)c1` [Example 149, 5-benzyl-N-(4-(2-methyl-5-(pent-4-en-1-yloxy)phenyl)pyridin-2-yl)-4H-1,2,4-triazole-3-carboxamide], not above 100 nM; that for `Cc1ccc(OCCCC(C)(C)O)cc1-c1cc(NC(=O)c2nnc(Cc3ccc(F)cc3F)[nH]2)ncn1` [Example 435, 5-(2,4-difluorobenzyl)-N-(6-(5-((4-hydroxy-4-methylpentyl)oxy)-2-methylphenyl)pyrimidin-4-yl)-4H-1,2,4-triazole-3-carboxamide], not above 100 nM.
